One data set has as its target Cytochrome P450 2C19 (Homo sapiens, UniProt P33261). The data set can be described thus: Cytochrome panel assay with activity outcomes. Panel member name: p450-cyp2c19 Compounds with AC50 equal or less than 10 uM are considered active. The class given is functional.
A further data set addresses T1, Streptokinase A (Streptococcus pyogenes serotype M1, UniProt P10520).
T1 sequence (P10520 whole entry): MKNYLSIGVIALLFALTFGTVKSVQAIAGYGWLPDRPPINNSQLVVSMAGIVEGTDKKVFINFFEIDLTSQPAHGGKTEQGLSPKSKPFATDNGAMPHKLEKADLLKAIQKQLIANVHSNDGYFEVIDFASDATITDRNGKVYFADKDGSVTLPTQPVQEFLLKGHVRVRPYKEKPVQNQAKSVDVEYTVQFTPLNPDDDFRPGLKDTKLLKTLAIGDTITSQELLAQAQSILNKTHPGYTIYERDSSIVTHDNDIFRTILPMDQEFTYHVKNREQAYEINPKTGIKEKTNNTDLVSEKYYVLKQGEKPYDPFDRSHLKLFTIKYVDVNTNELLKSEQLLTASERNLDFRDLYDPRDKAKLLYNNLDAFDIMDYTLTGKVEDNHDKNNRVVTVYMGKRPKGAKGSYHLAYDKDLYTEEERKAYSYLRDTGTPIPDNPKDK
The data set can be described thus: viability-normalized secreted streptokinase activity reduction – plasminogen activation absorbance, OD405, dose response (AID 1914).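 Further: secreted streptokinase activity via plasminogen activation per viability signal from cell pellet.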 The class given is functional, Streptococcus pyogenes M1 GAS.

Data set [1] concerns Streptococcus sp. 'group A'. The experiment in a line: Streptococcus pyogenes SK(-)GAS viability under kanamycin – luminescence, BacTiterGlo, confirmation, counter-screen for streptokinase expression inhibitor project, dose response (AID 1900). The class given is functional, organism-based. (In general: The purpose of a counterscreen is to sort out artefacts and off-target activity.)

The test system of a further data set is Streptococcus. The experiment in a line: GAS UMAA2166 growth inhibition – luminescence, BacTiterGlo, counter-screen for streptokinase expression inhibitor project, dose response (AID 1915).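 Further: potency for reduction of bacterial viability or growth.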 In kind it is functional, organism-based.
Data set [2] is described as follows: NIH3T3 cell viability loss – ATP luminescence, mouse fibroblasts, counter-screen, dose response (AID 2010).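 Further: cells exposed to compound for about 90 hours before reading.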 The class given is functional, cell-based.
Data set [3] in a line: Trypanosoma cruzi growth suppression in host cells – NIH3T3 host cells, beta-gal luminescence, confirmation (AID 2044).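 Further: intracellular parasites grown in NIH/3T3 mouse fibroblasts as host cells; luminescent beta-galactosidase reporter signal from transgenic T. cruzi replicating inside host cells; inhibitors lower the luminescence signal.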 The class given is functional, cell-based.
Data set [4] addresses T2, Replicative DNA helicase DnaB (Mycobacterium tuberculosis, UniProt P9WMR3).
T2 sequence (P9WMR3 whole entry): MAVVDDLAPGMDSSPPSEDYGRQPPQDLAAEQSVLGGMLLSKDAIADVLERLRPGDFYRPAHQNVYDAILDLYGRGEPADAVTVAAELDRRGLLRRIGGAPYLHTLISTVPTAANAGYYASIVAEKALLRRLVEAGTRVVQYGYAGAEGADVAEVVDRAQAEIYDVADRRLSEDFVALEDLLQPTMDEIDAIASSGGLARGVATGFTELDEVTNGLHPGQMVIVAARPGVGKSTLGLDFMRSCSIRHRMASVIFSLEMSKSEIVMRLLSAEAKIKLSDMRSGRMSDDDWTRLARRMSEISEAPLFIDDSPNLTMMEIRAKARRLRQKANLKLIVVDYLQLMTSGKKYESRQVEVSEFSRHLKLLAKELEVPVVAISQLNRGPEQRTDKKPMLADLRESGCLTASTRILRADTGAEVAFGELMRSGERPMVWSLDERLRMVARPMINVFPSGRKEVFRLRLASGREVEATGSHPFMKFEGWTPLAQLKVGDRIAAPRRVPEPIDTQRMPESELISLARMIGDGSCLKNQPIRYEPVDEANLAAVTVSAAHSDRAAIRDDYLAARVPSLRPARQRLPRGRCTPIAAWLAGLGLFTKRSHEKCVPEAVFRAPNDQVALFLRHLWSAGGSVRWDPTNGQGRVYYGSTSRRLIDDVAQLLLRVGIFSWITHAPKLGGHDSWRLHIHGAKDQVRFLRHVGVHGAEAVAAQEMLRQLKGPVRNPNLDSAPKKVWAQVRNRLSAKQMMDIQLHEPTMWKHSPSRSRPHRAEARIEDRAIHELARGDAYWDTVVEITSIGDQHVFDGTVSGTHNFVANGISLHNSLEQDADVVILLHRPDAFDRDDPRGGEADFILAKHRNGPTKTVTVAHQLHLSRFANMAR
The data set can be described thus: DnaB intein splicing inhibitors, dose response, biochemical, cell-free fluorescence (AID 449749). In kind it is functional.

The target of the next data set is T3, Protein RecA (Mycobacterium tuberculosis, UniProt P9WHJ3).
T3 sequence (P9WHJ3 whole entry): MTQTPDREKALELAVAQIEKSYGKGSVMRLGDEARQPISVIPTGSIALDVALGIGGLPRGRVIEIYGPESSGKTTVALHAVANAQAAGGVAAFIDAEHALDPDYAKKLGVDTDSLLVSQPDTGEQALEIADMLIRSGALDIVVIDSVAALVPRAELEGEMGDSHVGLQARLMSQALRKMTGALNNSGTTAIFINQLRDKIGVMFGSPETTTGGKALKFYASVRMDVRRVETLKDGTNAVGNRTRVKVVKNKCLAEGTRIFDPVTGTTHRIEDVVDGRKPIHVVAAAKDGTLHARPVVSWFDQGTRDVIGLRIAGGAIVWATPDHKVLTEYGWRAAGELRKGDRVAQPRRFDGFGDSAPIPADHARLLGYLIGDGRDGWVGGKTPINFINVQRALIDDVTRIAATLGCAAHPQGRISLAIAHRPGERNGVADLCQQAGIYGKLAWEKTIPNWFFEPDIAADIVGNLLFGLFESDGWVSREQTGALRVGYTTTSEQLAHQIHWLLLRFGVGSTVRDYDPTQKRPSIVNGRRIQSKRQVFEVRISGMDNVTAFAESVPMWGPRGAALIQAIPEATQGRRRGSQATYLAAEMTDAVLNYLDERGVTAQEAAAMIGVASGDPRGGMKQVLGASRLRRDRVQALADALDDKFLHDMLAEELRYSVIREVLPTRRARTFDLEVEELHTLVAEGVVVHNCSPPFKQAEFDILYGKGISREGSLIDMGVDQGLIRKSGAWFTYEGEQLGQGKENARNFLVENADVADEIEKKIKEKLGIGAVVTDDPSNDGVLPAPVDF
The data set can be described thus: Fluorescence Cell-Free Homogeneous Dose Retest to Identify Inhibitors of RecA-Intein Splicing Activity. [Related pubchem assays (depositor defined):AID2097, AID2223, AID489010, AID492950]. In kind it is functional.

This is an account of results in ChEMBL document CHEMBL1201862, “PubChem BioAssay data set” (2004).

The source made the active and inactive calls. Some results are limits rather than exact numbers.

Sequence of Cytochrome P450 2C19 (P33261 whole entry): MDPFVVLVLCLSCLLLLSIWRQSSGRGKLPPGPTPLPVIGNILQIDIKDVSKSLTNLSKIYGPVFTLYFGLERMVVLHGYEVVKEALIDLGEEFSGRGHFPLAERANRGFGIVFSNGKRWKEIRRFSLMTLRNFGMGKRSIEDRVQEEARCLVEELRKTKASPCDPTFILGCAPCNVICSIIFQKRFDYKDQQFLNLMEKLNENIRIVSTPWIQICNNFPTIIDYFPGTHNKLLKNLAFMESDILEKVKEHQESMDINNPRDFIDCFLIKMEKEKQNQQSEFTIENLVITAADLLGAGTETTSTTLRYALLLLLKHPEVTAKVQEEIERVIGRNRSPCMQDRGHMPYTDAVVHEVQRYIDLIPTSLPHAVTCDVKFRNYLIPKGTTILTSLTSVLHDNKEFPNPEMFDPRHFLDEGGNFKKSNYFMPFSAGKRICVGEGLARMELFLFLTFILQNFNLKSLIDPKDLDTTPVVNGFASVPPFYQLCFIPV

In general, AC50 refers to the concentration at which the activity in the assay is half-maximal. As for `c1ccc(C2CCC(N3CCC(N4CCCCC4)CC3)CC2)cc1` (stereo not given), on Cytochrome P450 2C19 (read-out: AC50), the half-maximal activity concentration (AC50) was 31.6 µM (inconclusive).
In general, EC50 refers to the concentration giving half of the maximal effect. As to `O=C(O)CC/C(=C\c1cc2c(cc1Br)OCO2)c1nc2ccccc2s1`, the concentration giving a half-maximal response (EC50) on Streptokinase A is 56 µM (active); in data set [1] it was 5.71 µM (active); with Streptococcus it was > 150 µM (not active).
The matching figures for `Cc1ccccc1N1CCN(S(=O)(=O)c2nnc(NC(=O)c3ccco3)s2)CC1`: 5.16 µM (active), 11 µM (active) and 41.7 µM (active).
As for `CC(C)C[C@@H](C(=O)NC1CCN(Cc2ccccc2)CC1)N1C(=O)N2CCc3c([nH]c4ccccc34)[C@@]2(C)C1=O`, the values for the concentration for a half-maximal effect (EC50) in data set [2] and in data set [3] were 5.05 µM (active) and 6.88 µM (active), respectively.
For `COc1cccc(C(Nc2ccccn2)c2c(NC(=O)c3ccco3)sc(C)c2C)c1` (stereo not given), in that order: > 60 µM (not active) and 2.53 µM (active).
As to `Cc1cccc(CSC2=NCCN2S(=O)(=O)c2ccc(F)cc2)c1`, the EC50 was 23.2 µM (active) on Streptokinase A, 41.8 µM (active) in data set [1] and > 150 µM (not active) in the data set with Streptococcus.
For `CCOc1ccc(CCNC(=O)C(CC)n2nc(C)n3c(cc4sccc43)c2=O)cc1OCC` (stereo not given), the EC50 in data set [2] is > 60 µM (not active); in data set [3], 1.31 µM (active).
With `CC(C)(C)c1cc(C(=O)CCN2CCOCC2)cc(C(C)(C)C)c1O`, in data set [4], the AC50 is 129 µM (active). The EC50 at Protein RecA is 16.8 µM (active).
As for `Cn1c(=O)c2nc(CCCCc3nc4c(=O)n(C)c(=S)n(C)c4[nH]3)[nH]c2n(C)c1=S`, the concentration at half-maximal activity (AC50) entry at Cytochrome P450 2C19 is reported as “inconclusive”.
On to `CN(CCOc1ccccc1)CC(=O)Nc1ccc(S(=O)(=O)N2CCCC2)cc1`, for which the EC50 in data set [2] was > 60 µM (not active); in data set [3], 0.695 µM (active).
The matching figures for `CCOc1ccc2oc(C(=O)NC3CCN(Cc4ccccc4)CC3)c(C)c2c1`: > 60 µM (not active) and 2 µM (active).
Turning to `Cc1ccc(S(=O)(=O)NCc2cccc([N+](=O)[O-])c2)cc1`, the AC50 on Cytochrome P450 2C19 (read-out: AC50) was 2.51 µM (inconclusive).
For the compound `CC(NCc1ccncc1)C12CC3CC(CC(C3)C1)C2` (stereo not given), the EC50 in data set [2] and in data set [3] was > 60 µM (not active) each time.
Take `C#C[C@]1(O)CC[C@@H]2[C@H]3CCc4cc(OC)ccc4[C@@H]3CC[C@@]21C`: at Cytochrome P450 2C19 (read-out: AC50), the AC50 is 1.26 µM (inconclusive).
Regarding `CC[C@H]1C2=C3C(CC[C@H]4C(OCc5ccc(F)cc5C(F)(F)F)OC[C@](C)([C@@H]34)N(C(=O)OC(C)(C)C)C2)C2COC(=O)OCC21` (stereo not given in full), the concentration at half-maximal activity (AC50) at Cytochrome P450 2C19 (read-out: AC50) is 39.8 µM (inconclusive).
`OC(CN1CCN(Cc2ccccc2)CC1)c1ccc(Br)cc1` (stereo not given): the values for the concentration for a half-maximal effect (EC50) in data set [2] and in data set [3] were 10 µM (active) and 0.324 µM (active), respectively.
On to `Cc1ccc(C(=O)Nc2nc(-c3ccccc3)c(-c3ccccc3)o2)cc1`, for which the EC50 in data set [2] is > 60 µM (not active); in data set [1], 1.27 µM (active); in data set [3] it was 2.48 µM (active); in the data set with Streptococcus, 2.36 µM (active).
On to `Cc1c(C(=O)N2CCN(S(=O)(=O)c3ccc(F)cc3)CC2)oc2ccccc12`, for which the results for the EC50 in data set [2] and in data set [3] were > 60 µM (not active) and 0.447 µM (active), respectively.
For the compound `COC(=O)NCC(c1cccnc1)N1CCN(c2ccccc2OC)CC1` (stereo not given), the AC50 at Cytochrome P450 2C19 (read-out: AC50) was 11.2 µM (inconclusive).
In the case of `CC(C)C(NC(=O)C(c1ccccc1)c1ccccc1)c1nc2ccccc2[nH]1` (stereo not given), the EC50 was > 150 µM (not active) at Streptokinase A, 1.87 µM (active) in data set [1] and 16 µM (active) in the data set with Streptococcus.
`COc1ccc(C(=O)NNC(=S)NC(=O)c2ccco2)cc1`: the concentration for a half-maximal effect (EC50) on Streptokinase A was > 150 µM (not active); in data set [1], 2.98 µM (active); with Streptococcus, 12 µM (active).
For `CCCCN(CCCC)c1cc(C)nc(-c2ccccc2O)n1`, the values for the EC50 (on Streptokinase A; in data set [1]; in the data set with Streptococcus) were 5.4 µM (active), 19.7 µM (active) and > 150 µM (not active), respectively.
As to `CCCC[C@@H]1C[C@H]1C(NC(=O)c1cccs1)c1ccc(C(F)(F)F)cc1` (stereo not given in full), at Cytochrome P450 2C19, the AC50 entry was “inconclusive”.
Turning to `COc1cc(C(c2c(C)n[nH]c2O)c2c(C)n[nH]c2O)ccc1OC(C)C`, the AC50 in data set [4] was 0.318 µM (active). The concentration giving a half-maximal response (EC50) on Protein RecA was 0.223 µM (active).
As for `Cc1cc(Cl)c(OCCOCCN2CCCC(C)C2)c(Br)c1` (stereo not given), the EC50 is > 60 µM (not active) in data set [2] and 0.393 µM (active) in data set [3].
As for `COc1ccc(N2C(=O)C(Cl)=C(N3CCN(Cc4ccccc4)CC3)C2=O)cc1`, in data set [4], the half-maximal activity concentration (AC50) was 8.12 µM (active). In addition, on Protein RecA, the EC50 is 1.67 µM (active).
The matching figures for `O=c1oc(-c2ccccc2Cl)nc2ccsc12`: 14 µM (active) and 23.3 µM (active).
For the compound `CN(C)CCCOc1ccc(Cl)cc1Br`, the EC50 in data set [2] is > 60 µM (not active); in data set [3], 0.535 µM (active).
With `O=C(COc1ccccc1)Nc1nnc(-c2ccccc2Cl)o1`, the EC50 (at Streptokinase A; in data set [1]; in the data set on Streptococcus) was > 150 µM (not active) throughout.
For the compound `COc1ccccc1N=C(S)N(Cc1ccc(C)cc1)Cc1ccccn1`, the EC50 in data set [2] is > 60 µM (not active); in data set [3], 1.55 µM (active).
For `CN(C)CCCNC(=O)c1cc2c3ccccc3n(C)c2s1`, the EC50 in data set [2] was > 60 µM (not active); in data set [3], 0.136 µM (active).
In the case of `COC(=O)N1CCC2(CCN(C(=O)Nc3cccc(F)c3)CC2)CC1`, on Cytochrome P450 2C19 (read-out: AC50), the AC50 was 5.01 µM (inconclusive).
For `Cc1n[nH]c(O)c1C(c1ccc(Br)cc1)c1c(C)n[nH]c1O`, the half-maximal activity concentration (AC50) in data set [4] was 0.588 µM (active). Besides, the EC50 at Protein RecA was 0.338 µM (active).
Turning to `Cc1cc(C)n2nc(SCC(=O)N/N=C/c3ccccc3F)nc2n1`, the half-maximal activity concentration (AC50) on Cytochrome P450 2C19 (read-out: AC50) was 20 µM (inconclusive).
With `CC1(C)S[C@@H]2[C@H](NC(=O)C(NC(=O)N3CCNC3=O)c3ccccc3)C(=O)N2[C@H]1C(=O)O` (stereo not given in full), the EC50 (in data set [1]; in the data set with Streptococcus) was < 0.06 µM (active) in each case.
